Key:
JAK3 = JAK3 (Homo sapiens (Human), UniProt P52333); test: Biochemical JAK3 kinase assay (LanthaScreen); settings: for JAK3 (pKi)-JAK1 (pKi): selectivity JAK3 over JAK1, difference of pKi
In short: (§1)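 GST-JAK + GFP-STAT1 peptide, HEPES pH 7.5/MgCl2/EGTA/Brij-35 buffer; cpd preincubation 1 h RT; ATP start, 1 h RT; stop with 10 mM EDTA + 2 nM Tb-anti-pSTAT1; TR-FRET 520/495. 4-parameter IC50 → pKi (Cheng-Prusoff).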

Caco-2 cell monolayers = test: Caco-2 permeation assay; format: in vitro ADME; settings: 5 μM, A-B direction, with Verapamil (25 μM)
Procedure: Assay 4: Caco-2 Permeation Assay
The Caco-2 permeation assay was performed to model the ability of test compounds to pass through the intestine and get into the blood stream after oral administration. The rate at which test compounds in solution permeate a cell monolayer designed to mimic the tight junction of human small intestinal monolayers was determined.
CacoReady 24-well transwell plates were obtained from ADMEcell (Alameda, Calif.). The compounds were evaluated at a concentration of 5 μM from 10 mM DMSO stock solutions in duplicate (n=2). The passive permeability of the compounds tested was evaluated using Caco-2 cell monolayers along with Verapamil (25 μM) to inhibit P-gp transport proteins in the apical to basolateral (A-B) direction. The experiment was conducted in a 37° C., 5% CO2 incubator. Caco-2 culture media consisted of standard filtered DMEM, FCS 10%, L-Glutamine 1% and PenStrep 1%. Basal assay plate was prepared by adding 750 μL of transport buffer to A-B wells. A CacoReady™ plate was prepared by removing the Caco-2 media from the apical wells and replacing with fresh transport media (200 μL repeated for a total of 3 washes). Blank media (200 μL) was then replaced with diluted compound for A-B wells. To begin the incubation, the basal plate was removed from the incubator and the apical section was added on top of it. Samples (40 μL) were collected from the apical and basal compartments for time zero (t0). Samples were collected again after 120 minutes (t120) from the apical and basal compartments. All samples were diluted and prepared for bioanalysis by LC-MS/MS. The permeation coefficient (Kp, mean A to B+ Verapamil Papparent) in cm/sec was calculated as dQ (flux)/(dt×Area×concentration).
In this assay, a Kp value less than about 5×10^−6 cm/sec is considered favorable to minimize systemic exposure and target the colon. A Kp value less than about 10×10^−6 cm/sec may also be sufficient to minimize systemic exposure and target the colon.

JAK1 = JAK1 (Homo sapiens (Human), UniProt P23458); test: Biochemical JAK1 kinase assay (LanthaScreen)
In short: as §1

[1] = tested on: IL-2 stimulated STAT5 phosphorylation in Tall-1 human T cell line (JAK3); test: Cellular JAK3 potency assay: inhibition of IL-2 stimulated pSTAT5 in Tall-1 T cells; format: cell-based; settings: IL-2 stimulated pSTAT5, Tall-1 T cells
In short: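 Tall-1 cells, 45,000 per well, preincubated 1 hour with compound at 37 °C, then stimulated 30 minutes with IL-2 at 300 ng/ml final. pSTAT5 (Tyr694/699) in lysates quantified by AlphaLISA SureFire Ultra. pIC50 derived from inhibition curves, given as mean with SD.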

JAK2 = JAK2 (Homo sapiens (Human), UniProt O60674); test: Biochemical JAK2 kinase assay (LanthaScreen)
In short: as §1

Tyk2 = Tyk2 (Homo sapiens (Human), UniProt P29597); test: Biochemical Tyk2 kinase assay (LanthaScreen)
In short: as §1

Sequence of JAK1 (P23458 whole entry): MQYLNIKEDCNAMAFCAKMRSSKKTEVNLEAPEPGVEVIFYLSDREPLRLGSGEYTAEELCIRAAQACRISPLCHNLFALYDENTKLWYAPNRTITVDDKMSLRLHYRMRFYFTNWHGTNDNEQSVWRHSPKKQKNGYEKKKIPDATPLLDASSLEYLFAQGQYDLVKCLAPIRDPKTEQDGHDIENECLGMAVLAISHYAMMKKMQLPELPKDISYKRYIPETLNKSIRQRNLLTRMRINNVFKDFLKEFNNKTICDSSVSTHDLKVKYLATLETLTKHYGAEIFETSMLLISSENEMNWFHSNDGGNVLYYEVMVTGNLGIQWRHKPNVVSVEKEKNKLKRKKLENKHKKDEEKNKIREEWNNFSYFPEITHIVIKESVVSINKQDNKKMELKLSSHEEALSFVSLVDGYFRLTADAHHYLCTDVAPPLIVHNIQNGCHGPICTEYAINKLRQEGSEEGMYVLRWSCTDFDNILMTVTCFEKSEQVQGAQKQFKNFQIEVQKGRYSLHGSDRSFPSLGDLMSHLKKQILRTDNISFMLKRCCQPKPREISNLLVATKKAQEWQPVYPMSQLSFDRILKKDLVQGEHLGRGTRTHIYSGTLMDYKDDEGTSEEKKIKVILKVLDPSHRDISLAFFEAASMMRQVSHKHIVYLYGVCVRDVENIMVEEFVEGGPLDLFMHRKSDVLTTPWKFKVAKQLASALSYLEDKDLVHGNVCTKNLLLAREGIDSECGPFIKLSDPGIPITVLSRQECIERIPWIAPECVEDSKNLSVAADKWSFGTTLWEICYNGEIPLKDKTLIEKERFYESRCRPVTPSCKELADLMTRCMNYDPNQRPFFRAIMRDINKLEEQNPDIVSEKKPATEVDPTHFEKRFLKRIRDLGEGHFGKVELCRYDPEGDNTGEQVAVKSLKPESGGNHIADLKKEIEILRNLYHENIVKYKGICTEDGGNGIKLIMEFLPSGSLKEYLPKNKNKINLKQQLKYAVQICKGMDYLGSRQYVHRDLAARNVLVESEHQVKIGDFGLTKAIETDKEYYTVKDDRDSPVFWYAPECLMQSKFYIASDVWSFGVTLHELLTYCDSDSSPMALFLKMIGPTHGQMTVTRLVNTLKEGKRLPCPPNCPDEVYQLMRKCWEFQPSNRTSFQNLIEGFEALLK
Sequence of JAK3 (P52333 whole entry): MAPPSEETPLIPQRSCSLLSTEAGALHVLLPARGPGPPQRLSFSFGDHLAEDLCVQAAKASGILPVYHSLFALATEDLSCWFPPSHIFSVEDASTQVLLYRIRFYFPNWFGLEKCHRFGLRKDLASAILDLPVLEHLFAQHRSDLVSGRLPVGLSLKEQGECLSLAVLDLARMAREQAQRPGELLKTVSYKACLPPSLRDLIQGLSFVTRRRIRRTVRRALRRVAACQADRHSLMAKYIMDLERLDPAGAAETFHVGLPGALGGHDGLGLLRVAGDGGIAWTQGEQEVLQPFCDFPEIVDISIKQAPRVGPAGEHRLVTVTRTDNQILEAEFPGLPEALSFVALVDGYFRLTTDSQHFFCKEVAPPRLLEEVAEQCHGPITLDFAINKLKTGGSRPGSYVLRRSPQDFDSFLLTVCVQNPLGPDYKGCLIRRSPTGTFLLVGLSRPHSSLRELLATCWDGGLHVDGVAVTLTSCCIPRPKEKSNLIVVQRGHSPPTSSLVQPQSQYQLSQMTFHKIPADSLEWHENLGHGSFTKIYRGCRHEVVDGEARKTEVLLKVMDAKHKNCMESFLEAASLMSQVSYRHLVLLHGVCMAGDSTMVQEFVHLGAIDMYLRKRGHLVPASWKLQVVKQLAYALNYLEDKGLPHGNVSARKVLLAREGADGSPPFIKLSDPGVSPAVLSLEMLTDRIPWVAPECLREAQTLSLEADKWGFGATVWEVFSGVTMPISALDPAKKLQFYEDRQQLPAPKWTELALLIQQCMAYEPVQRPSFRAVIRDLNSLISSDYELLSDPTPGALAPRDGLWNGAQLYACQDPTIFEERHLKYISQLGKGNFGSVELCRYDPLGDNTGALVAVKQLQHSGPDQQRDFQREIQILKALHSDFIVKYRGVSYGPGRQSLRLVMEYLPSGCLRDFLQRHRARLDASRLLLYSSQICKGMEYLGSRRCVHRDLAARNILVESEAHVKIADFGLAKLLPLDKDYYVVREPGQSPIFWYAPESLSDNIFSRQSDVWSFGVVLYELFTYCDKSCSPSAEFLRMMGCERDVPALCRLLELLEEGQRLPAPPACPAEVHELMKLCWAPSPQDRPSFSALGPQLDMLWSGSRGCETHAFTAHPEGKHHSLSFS
Sequence of Tyk2 (P29597 whole entry): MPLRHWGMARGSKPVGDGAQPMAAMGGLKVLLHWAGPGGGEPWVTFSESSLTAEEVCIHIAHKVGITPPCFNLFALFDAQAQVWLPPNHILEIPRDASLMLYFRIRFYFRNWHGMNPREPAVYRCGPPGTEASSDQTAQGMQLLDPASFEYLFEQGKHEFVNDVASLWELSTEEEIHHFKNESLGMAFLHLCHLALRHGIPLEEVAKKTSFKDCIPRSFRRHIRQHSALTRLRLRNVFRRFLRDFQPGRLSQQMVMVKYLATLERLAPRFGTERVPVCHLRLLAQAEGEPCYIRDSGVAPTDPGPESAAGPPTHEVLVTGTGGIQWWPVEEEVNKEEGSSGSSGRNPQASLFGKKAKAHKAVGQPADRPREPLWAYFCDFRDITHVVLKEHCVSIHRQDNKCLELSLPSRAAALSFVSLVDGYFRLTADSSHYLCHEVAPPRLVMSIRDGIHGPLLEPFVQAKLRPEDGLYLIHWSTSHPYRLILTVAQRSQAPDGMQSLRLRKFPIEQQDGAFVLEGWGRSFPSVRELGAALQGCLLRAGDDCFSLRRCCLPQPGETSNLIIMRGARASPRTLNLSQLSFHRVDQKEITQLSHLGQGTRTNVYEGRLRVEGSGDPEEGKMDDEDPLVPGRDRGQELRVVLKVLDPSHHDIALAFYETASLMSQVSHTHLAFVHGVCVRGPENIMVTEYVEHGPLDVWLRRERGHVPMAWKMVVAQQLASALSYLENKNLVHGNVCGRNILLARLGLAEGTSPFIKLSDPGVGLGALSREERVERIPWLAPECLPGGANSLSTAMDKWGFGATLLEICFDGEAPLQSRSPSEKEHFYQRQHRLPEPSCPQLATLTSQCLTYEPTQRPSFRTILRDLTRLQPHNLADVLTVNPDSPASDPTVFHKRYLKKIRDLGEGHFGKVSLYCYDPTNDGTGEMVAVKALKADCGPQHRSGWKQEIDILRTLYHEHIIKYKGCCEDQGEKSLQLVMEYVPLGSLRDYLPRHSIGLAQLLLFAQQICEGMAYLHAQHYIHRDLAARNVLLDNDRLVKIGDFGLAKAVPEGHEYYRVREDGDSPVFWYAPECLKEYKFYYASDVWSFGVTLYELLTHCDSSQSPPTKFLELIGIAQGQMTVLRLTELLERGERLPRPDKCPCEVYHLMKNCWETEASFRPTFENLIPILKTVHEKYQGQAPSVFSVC
Sequence of JAK2 (O60674 whole entry): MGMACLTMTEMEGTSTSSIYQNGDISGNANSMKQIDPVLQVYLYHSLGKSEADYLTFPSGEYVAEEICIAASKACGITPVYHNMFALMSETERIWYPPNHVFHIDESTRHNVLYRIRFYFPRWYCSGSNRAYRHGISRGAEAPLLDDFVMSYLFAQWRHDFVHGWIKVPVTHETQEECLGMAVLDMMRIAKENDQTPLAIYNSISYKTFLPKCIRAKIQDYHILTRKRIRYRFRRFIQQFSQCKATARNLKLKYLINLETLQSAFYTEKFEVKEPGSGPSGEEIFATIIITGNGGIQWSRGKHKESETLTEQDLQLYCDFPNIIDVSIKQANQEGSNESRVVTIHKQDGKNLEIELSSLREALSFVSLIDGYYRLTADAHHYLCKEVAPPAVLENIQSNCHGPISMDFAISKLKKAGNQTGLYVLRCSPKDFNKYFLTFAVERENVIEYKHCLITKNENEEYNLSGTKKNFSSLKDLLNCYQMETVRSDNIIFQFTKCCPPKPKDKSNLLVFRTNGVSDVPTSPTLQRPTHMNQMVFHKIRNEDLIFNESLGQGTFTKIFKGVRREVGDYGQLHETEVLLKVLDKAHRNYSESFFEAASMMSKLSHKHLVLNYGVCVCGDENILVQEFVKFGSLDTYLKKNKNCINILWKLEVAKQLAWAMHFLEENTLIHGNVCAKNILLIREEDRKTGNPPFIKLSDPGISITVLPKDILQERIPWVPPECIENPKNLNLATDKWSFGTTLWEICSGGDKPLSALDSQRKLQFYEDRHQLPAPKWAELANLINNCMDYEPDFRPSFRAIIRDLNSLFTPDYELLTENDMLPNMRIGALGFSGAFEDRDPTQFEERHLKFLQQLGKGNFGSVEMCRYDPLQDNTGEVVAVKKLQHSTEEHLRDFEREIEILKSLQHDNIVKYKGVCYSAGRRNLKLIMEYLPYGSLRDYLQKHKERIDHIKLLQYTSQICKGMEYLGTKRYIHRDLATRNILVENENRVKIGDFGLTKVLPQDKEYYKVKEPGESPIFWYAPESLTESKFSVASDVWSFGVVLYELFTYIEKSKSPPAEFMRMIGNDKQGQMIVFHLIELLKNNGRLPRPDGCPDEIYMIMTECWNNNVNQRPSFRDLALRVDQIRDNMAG

Row | Structure (SMILES) | JAK 3 (pKi) (JAK3) | JAK3 (pKi)-JAK1 (pKi) (JAK3) | Caco Kp (Caco-2 cell monolayers) | JAK 1 (pKi) (JAK1) | Tall-1 (pIC50) [1] | JAK 2 (pKi) (JAK2) | Tyk 2 (pKi) (Tyk2)
1 | C=CC(=O)N1CC(CCn2c(=O)ccc3cnc(Nc4ccc(N5CCSCC5)nc4)nc32)C1 [Example 54] | B (B represents pKi value between 9 and 10 (Ki between 1 nM and 0.1 nM)) | A (A represents a value of 3 or above) | C (C represents a value between 10×10^−6 and 30×10^−6 cm/sec) | E (E represents a pKi value of 7 or below (Ki of 100 nM or above)) | C (C represents a pIC50 value between 6 and 6.7 (IC50 between 1 μM and 200 nM)) |  | 
2 | C=CC(=O)N1CCN(CCn2c(=O)ccc3cnc(Nc4ccc(N5CCN(C(=O)OC)CC5)cc4)nc32)[C@@H](C)C1 [Example 172] | B (B represents pKi value between 9 and 10 (Ki between 1 nM and 0.1 nM)) | A (A represents a value of 3 or above) | C (C represents a value between 10×10^−6 and 30×10^−6 cm/sec) | E (E represents a pKi value of 7 or below (Ki of 100 nM or above)) | A (A represents a pIC50 value≥7.5 (IC50≤32 nM)) | E (E represents a pKi value of 7 or below (Ki of 100 nM or above)) | E (E represents a pKi value of 7 or below (Ki of 100 nM or above))
3 | C=CC(=O)N1CC(CCn2c(=O)ccc3cnc(Nc4cnn(CC(F)F)c4)nc32)C1 [Example 20] | B (B represents pKi value between 9 and 10 (Ki between 1 nM and 0.1 nM)) | A (A represents a value of 3 or above) | B (B represents a value between 5×10^−6 and 10×10^−6 cm/sec) | E (E represents a pKi value of 7 or below (Ki of 100 nM or above)) | C (C represents a pIC50 value between 6 and 6.7 (IC50 between 1 μM and 200 nM)) |  | 
4 | C=CC(=O)N1CC(CCn2c(=O)ccc3cnc(Nc4ccc(N5CCN(C(=O)C(C)(C)O)CC5)cc4)nc32)C1 [Example 138] | A (A represents a pKi value≥10 (Ki≤0.1 nM)) | A (A represents a value of 3 or above) | A (A represents a value below 5×10^−6 cm/sec) | E (E represents a pKi value of 7 or below (Ki of 100 nM or above)) | B (B represents a pC50 value between 6.7 (included) and 7.5 (IC50 between 200 nM and 32 nM)) | D (D represents a pKi value between 7 and 8 (Ki between 100 nM and 10 nM)) | E (E represents a pKi value of 7 or below (Ki of 100 nM or above))
5 | C=CC(=O)N1CC(CCn2c(=O)ccc3cnc(Nc4ccc(N5CCN(S(=O)(=O)NC)CC5)cc4)nc32)C1 [Example 96] | A (A represents a pKi value≥10 (Ki≤0.1 nM)) | A (A represents a value of 3 or above) | A (A represents a value below 5×10^−6 cm/sec) | E (E represents a pKi value of 7 or below (Ki of 100 nM or above)) | B (B represents a pC50 value between 6.7 (included) and 7.5 (IC50 between 200 nM and 32 nM)) | E (E represents a pKi value of 7 or below (Ki of 100 nM or above)) | E (E represents a pKi value of 7 or below (Ki of 100 nM or above))
6 | C=CC(=O)N1CC(CCn2c(=O)ccc3cnc(Nc4ccc(N5CCN(C(=O)CS(C)(=O)=O)CC5)cc4)nc32)C1 [Example 151] | B (B represents pKi value between 9 and 10 (Ki between 1 nM and 0.1 nM)) | A (A represents a value of 3 or above) | A (A represents a value below 5×10^−6 cm/sec) | E (E represents a pKi value of 7 or below (Ki of 100 nM or above)) | C (C represents a pIC50 value between 6 and 6.7 (IC50 between 1 μM and 200 nM)) | E (E represents a pKi value of 7 or below (Ki of 100 nM or above)) | E (E represents a pKi value of 7 or below (Ki of 100 nM or above))
7 | C=CC(=O)N1CC(CCn2c(=O)ccc3cnc(Nc4ccc(N5CCN(C(=O)[C@H](C)O)CC5)cc4)nc32)C1 [Example 106] | A (A represents a pKi value≥10 (Ki≤0.1 nM)) | A (A represents a value of 3 or above) | A (A represents a value below 5×10^−6 cm/sec) | E (E represents a pKi value of 7 or below (Ki of 100 nM or above)) | B (B represents a pC50 value between 6.7 (included) and 7.5 (IC50 between 200 nM and 32 nM)) | E (E represents a pKi value of 7 or below (Ki of 100 nM or above)) | E (E represents a pKi value of 7 or below (Ki of 100 nM or above))
8 | C=CC(=O)N1CC(CCn2c(=O)ccc3cnc(Nc4ccc(N5CCOCC5=O)cc4)nc32)C1 [Example 47] | B (B represents pKi value between 9 and 10 (Ki between 1 nM and 0.1 nM)) | A (A represents a value of 3 or above) | A (A represents a value below 5×10^−6 cm/sec) | E (E represents a pKi value of 7 or below (Ki of 100 nM or above)) | C (C represents a pIC50 value between 6 and 6.7 (IC50 between 1 μM and 200 nM)) |  | 
9 | C=CC(=O)N1CC(CCn2c(=O)ccc3cnc(Nc4ccc(C5CCN(C)CC5)cc4)nc32)C1 [Example 77] | B (B represents pKi value between 9 and 10 (Ki between 1 nM and 0.1 nM)) | A (A represents a value of 3 or above) | A (A represents a value below 5×10^−6 cm/sec) | E (E represents a pKi value of 7 or below (Ki of 100 nM or above)) | B (B represents a pC50 value between 6.7 (included) and 7.5 (IC50 between 200 nM and 32 nM)) |  | 
10 | C=CC(=O)N1CC(CCn2c(=O)ccc3cnc(Nc4cccc(N5CCOCC5)c4)nc32)C1 [Example 28] | B (B represents pKi value between 9 and 10 (Ki between 1 nM and 0.1 nM)) | A (A represents a value of 3 or above) | C (C represents a value between 10×10^−6 and 30×10^−6 cm/sec) | E (E represents a pKi value of 7 or below (Ki of 100 nM or above)) | C (C represents a pIC50 value between 6 and 6.7 (IC50 between 1 μM and 200 nM)) |  | 
11 | C=CC(=O)N1CC(CCn2c(=O)ccc3cnc(Nc4cnn(CCO)c4)nc32)C1 [Example 35] | B (B represents pKi value between 9 and 10 (Ki between 1 nM and 0.1 nM)) | A (A represents a value of 3 or above) | A (A represents a value below 5×10^−6 cm/sec) | E (E represents a pKi value of 7 or below (Ki of 100 nM or above)) | C (C represents a pIC50 value between 6 and 6.7 (IC50 between 1 μM and 200 nM)) |  | 
12 | C=CC(=O)N1CC(CCn2c(=O)ccc3cnc(Nc4cnn(C(F)F)c4)nc32)C1 [Example 36] | B (B represents pKi value between 9 and 10 (Ki between 1 nM and 0.1 nM)) | A (A represents a value of 3 or above) | C (C represents a value between 10×10^−6 and 30×10^−6 cm/sec) | E (E represents a pKi value of 7 or below (Ki of 100 nM or above)) | C (C represents a pIC50 value between 6 and 6.7 (IC50 between 1 μM and 200 nM)) |  | 
13 | C=CC(=O)N1CC(CCn2c(=O)ccc3cnc(Nc4cnn(C5CCOCC5)c4)nc32)C1 [Example 81] | B (B represents pKi value between 9 and 10 (Ki between 1 nM and 0.1 nM)) | A (A represents a value of 3 or above) | A (A represents a value below 5×10^−6 cm/sec) | E (E represents a pKi value of 7 or below (Ki of 100 nM or above)) | B (B represents a pC50 value between 6.7 (included) and 7.5 (IC50 between 200 nM and 32 nM)) |  | 

— patent US11697648B2, “Fused pyrimidine pyridinone compounds as JAK inhibitors” (THERAVANCE BIOPHARMA R&D IP, LLC, priority 2019, dated 2023)
